From publication PMC6286365 (Scientific Reports, 2018) come the findings set out here.

For one data set, the target named is T1, acid sphingomyelinase (Homo sapiens, UniProt P17405).
T1 sequence (P17405 47-631): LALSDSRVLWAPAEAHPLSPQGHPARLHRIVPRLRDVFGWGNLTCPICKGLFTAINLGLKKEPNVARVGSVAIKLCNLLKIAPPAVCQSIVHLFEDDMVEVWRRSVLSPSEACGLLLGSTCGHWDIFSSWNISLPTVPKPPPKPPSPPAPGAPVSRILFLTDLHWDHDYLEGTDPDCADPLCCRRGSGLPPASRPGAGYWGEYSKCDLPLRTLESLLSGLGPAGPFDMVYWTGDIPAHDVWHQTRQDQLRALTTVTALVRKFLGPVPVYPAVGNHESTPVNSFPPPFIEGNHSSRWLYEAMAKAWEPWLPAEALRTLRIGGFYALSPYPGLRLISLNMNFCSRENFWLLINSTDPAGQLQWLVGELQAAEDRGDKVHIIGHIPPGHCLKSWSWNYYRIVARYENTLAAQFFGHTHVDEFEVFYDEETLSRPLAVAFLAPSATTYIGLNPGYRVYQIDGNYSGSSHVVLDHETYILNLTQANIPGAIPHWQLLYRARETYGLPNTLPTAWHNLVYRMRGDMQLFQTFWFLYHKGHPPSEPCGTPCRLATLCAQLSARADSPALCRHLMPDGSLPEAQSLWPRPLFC
Nature of the data set: Acid sphingomyelinase inhibition (results not shown). In kind it is biochemical.

Data set [1] is described as follows: Metabolic stability in human liver microsomes with NADPH. The format is in vitro ADME. Particulars: pH 7.4, 1 μM compound, read-out: percent remaining. Here is the method:
One potential liability when using chemical probes in vivo is lack of metabolic stability which structurally inactivates the compound before it can reach its molecular target. […] Percent of drug remaining over time was determined by liquid chromatography–tandem mass spectrometry analysis (LC/MS/MS).
Metabolic stability assay was conducted in mouse or human liver microsomes as we have described previously with minor modifications. Briefly, the reaction was carried out using potassium phosphate buffer (100 mM, pH 7.4), in the presence of an NADPH regenerating system (compound final concentration was 1 μM; 0.2 mg/mL microsomes). Compound disappearance was monitored over time using a liquid chromatography and tandem mass spectrometry (LC/MS/MS) method. Chromatographic analysis was performed using an Accela ultra high-performance system consisting of an analytical pump and an autosampler coupled with a TSQ Vantage mass spectrometer (Thermo Fisher Scientific Inc., Waltham, MA). […] The mobile phase consisted of 0.1% formic acid in acetonitrile and 0.1% formic acid in water with gradient elution.

Data set [2] can be described thus: In vivo pharmacokinetics, plasma and brain, 10 mg/kg IP. To be noted: male, CD1, mouse, mice.
Experimental: Pharmacokinetic studies in mice were approved by the Animal Care and Use Committee at Johns Hopkins University. Male CD1 mice between 25 and 30 g were obtained from Harlan and maintained on a 12 h light−dark cycle with ad libitum access to food and water. Test compounds were dosed at 10 mg/kg IP at a dosing volume of 10 mL/kg. Blood and brain tissue were collected at 0.25, 0.5, 1, 2, 4 and 6 h post dose (n = 3 per time point). Blood was obtained via cardiac puncture and plasma was harvested from blood by centrifugation at 3000 × g for 15 min and stored at −80 °C. Brain tissues were harvested following blood collection and immediately snap frozen in liquid nitrogen and stored at −80 °C until LC−MS analysis. […] The samples were vortex mixed for 30 secs and centrifuged at 10000 × g for 10 min at 4 °C. Fifty microliter of the supernatant was diluted with 50 µL water and transferred to a 250 µL polypropylene vial sealed with a Teflon cap and analyzed via LC/MS/MS as described above. Plasma concentrations (pmol/mL) as well as tissue concentrations (pmol/g) were determined and plots of mean plasma concentration versus time were constructed for PK analysis. Non-compartmental-analysis modules in Phoenix WinNonlin version 7.0 (Certara USA, Inc., Princeton, NJ) were used to assess pharmacokinetic parameters including maximal concentration (Cmax), time to Cmax (Tmax), and area under the curve extrapolated to infinity (AUC0-∞).
The target of another data set is T2, human nSMase2 (Homo sapiens, UniProt Q9NY59).
T2 sequence (Q9NY59 1-655): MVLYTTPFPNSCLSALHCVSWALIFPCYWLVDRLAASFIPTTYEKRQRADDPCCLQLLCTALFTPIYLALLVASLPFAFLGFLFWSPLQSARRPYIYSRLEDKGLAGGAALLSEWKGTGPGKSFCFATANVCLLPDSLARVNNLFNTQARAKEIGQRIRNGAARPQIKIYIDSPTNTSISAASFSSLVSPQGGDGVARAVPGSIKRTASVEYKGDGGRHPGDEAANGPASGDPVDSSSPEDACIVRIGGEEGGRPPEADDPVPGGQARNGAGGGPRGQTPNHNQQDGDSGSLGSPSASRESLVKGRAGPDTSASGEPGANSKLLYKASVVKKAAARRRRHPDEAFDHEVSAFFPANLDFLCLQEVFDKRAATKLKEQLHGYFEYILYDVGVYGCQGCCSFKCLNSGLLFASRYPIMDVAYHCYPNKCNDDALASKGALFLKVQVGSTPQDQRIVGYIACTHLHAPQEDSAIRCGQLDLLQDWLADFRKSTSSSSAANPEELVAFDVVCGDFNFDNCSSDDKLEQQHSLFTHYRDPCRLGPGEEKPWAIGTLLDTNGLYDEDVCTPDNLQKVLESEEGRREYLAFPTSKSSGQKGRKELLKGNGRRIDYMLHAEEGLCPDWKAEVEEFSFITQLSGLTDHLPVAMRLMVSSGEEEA
Nature of the data set: Mode of inhibition: rate vs SM concentration at several DPTIP concentrations (Michaelis-Menten fits). In kind it is biochemical. Also noted: Full length human nSMase2 cDNA with a C-terminal Flag tag; host or cells: HEK293 cells, G418-selected; crude sonicated cell lysate used as the enzyme preparation. Particulars: with respect to SM.

Molecules are shown by their SMILES.

A word on the IC50: it is the concentration that inhibits the measured activity by half. The share remaining is what is left of the initial amount, in per cent. The AUC(0-inf) is total exposure, with the tail of the curve extrapolated. High values mean high exposure, low ones low exposure. In general, Tmax refers to the time at which the peak concentration occurs. Regarding `COc1cc(-c2nc(-c3cccs3)c(-c3ccccc3)[nH]2)cc(OC)c1O` [DPTIP, 2,6-Dimethoxy-4-(5-Phenyl-4-Thiophen-2-yl-1H-Imidazol-2-yl)-Phenol], at acid sphingomyelinase, the concentration for half-maximal inhibition (IC50) was more than 100 µM. Further, in data set [1], the share remaining at 1 h, 1 μM was found to be 100%. Besides, the Kp in data set [2] (brain and plasma, read-out: AUCbrain/AUCplasma) was 0.26. In data set [2] (brain), the AUC(0-inf) turned out to be 2.6 ± 0.5 µM·h and the Tmax was 30 min. For the same compound, in data set [2] (plasma), the area under the curve AUC(0-inf) was 10 ± 1 µM·h and the time of peak concentration (Tmax) stood at 30 min. In addition, the mode of inhibition result on human nSMase2 is reported as “noncompetitive”.
